Patent US20180099931A1 (AbbVie S.à.r.l., priority 2016, published 2018)
Read-outs that look alike come from different tables or passages of the source.

Target: T1, F508delCFTR (Homo sapiens, UniProt P13569, DEL508-508)
T1 construct: expressed in transfected cells; host or cells: CFBE41o- human lung-derived epithelial cells (CFBE4lo-F508delCFTR-HRP), doxycycline-inducible
Experiment: Cell Surface Expression-Horse Radish Peroxidase (CSE-HRP) Assay;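 on Maximum % activity (with co-corrector): co-corrector and positive control are both the same reference corrector at 2 µM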
Assay type: cell-based
Settings: for Emax / Maximum % activity (with co-corrector): maximum at any tested concentration, normalized to on-plate positive control; for Emax: read-out: Maximum % activity (without co-corrector)
Description: Cell Surface Expression-Horse Radish Peroxidase (CSE-HRP) Assay;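 on Maximum % activity (with co-corrector): co-corrector and positive control are both the same reference corrector at 2 µM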
The development was achieved by expressing the F508delCFTR mutation along with a horseradish peroxidase (HRP) in the fourth exofacial loop, and then measuring the HRP activity using luminescence readout from these cells, CFBE4lo-F508delCFTR-HRP, that were incubated overnight with the test corrector compounds, either without or with the co-corrector. […] The test compounds were then added either without or with a co-corrector at the required concentrations and further incubated for 18-24 hours at 33° C. The highest concentration tested was 20 μM with an 8-point concentration response curve using a 3-fold dilution in both the test compound without or with the co-corrector. Three replicate plates were run to determine one EC50. All plates contained negative controls (dimethyl sulfoxide, DMSO) and positive control (2 μM of 3-[(2R,4R)-4-({[1-(2,2-difluoro-1,3-benzodioxol-5-yl)cyclopropyl]carbonyl}amino)-7-methoxy-3,4-dihydro-2H-chromen-2-yl]benzoic acid) as well as on-plate concentration response of the positive control. […] The raw counts from the experiment were analyzed using Accelrys® Assay Explorer v3.3.
1−[3*SDPositive Control+3*SDNegative Control/Absolute(MeanPositive Control−MeanNegative Control)]
wherein “SD” is standard deviation.
The % activity measured at each of the 8 test concentrations of the test compound added either without or with a co-corrector (2 μM of 3-[(2R,4R)-4-({[1-(2,2-difluoro-1,3-benzodioxol-5-yl)cyclopropyl]carbonyl}amino)-7-methoxy-3,4-dihydro-2H-chromen-2-yl]benzoic acid) was normalized to the on-plate positive control using the following formulae:
% activity(Test compound without co-corrector)=[(test compound without co-corrector response−DMSO response)/(positive control response−DMSO response)]*100
% activity(Test compound with co-corrector)=[(test compound with co-corrector response−DMSO response)/(positive control response−DMSO response)]*100
The maximum % activity achieved for the test compound either without or with a co-corrector at any tested concentration is presented in Table 4 along with the respective EC50's calculated using the following general sigmoidal curve with variable Hill slope equation (described as Model 42 in the Accelrys® Assay Explorer v3.3 software):
General sigmoidal curve with concentration, response, top, bottom, EC50 and Hill slope. This model describes a sigmoidal curve with an adjustable baseline, a. The equation can be used to fit curves where response is either increasing or decreasing with respect to the independent variable, “x”.
“x” is a concentration of drug under test. “y” is the response. “a” is the maximum response, and “d” is the minimum response “c” is the inflection point (EC50) for the curve. That is, “y” is halfway between the lower and upper asymptotes when x=c. “b” is the slope-factor or Hill coefficient. The sign of b is positive when the response increases with increasing dose and is negative when the response decreases with increasing dose (inhibition).

[1] = test compound without co-corrector
[2] = test compound without co-corrector, read-out: EC50 (without co-corrector)
[3] = with co-corrector (2 μM of 3-[(2R,4R)-4-({[1-(2,2-difluoro-1,3-benzodioxol-5-yl)cyclopropyl]carbonyl}amino)-7-methoxy-3,4-dihydro-2H-chromen-2-yl]benzoic acid)
[4] = with co-corrector (2 μM of 3-[(2R,4R)-4-({[1-(2,2-difluoro-1,3-benzodioxol-5-yl)cyclopropyl]carbonyl}amino)-7-methoxy-3,4-dihydro-2H-chromen-2-yl]benzoic acid), read-out: EC50 (with co-corrector)

T1 sequence (P13569 with tags, fused parts or gaps DEL508-508): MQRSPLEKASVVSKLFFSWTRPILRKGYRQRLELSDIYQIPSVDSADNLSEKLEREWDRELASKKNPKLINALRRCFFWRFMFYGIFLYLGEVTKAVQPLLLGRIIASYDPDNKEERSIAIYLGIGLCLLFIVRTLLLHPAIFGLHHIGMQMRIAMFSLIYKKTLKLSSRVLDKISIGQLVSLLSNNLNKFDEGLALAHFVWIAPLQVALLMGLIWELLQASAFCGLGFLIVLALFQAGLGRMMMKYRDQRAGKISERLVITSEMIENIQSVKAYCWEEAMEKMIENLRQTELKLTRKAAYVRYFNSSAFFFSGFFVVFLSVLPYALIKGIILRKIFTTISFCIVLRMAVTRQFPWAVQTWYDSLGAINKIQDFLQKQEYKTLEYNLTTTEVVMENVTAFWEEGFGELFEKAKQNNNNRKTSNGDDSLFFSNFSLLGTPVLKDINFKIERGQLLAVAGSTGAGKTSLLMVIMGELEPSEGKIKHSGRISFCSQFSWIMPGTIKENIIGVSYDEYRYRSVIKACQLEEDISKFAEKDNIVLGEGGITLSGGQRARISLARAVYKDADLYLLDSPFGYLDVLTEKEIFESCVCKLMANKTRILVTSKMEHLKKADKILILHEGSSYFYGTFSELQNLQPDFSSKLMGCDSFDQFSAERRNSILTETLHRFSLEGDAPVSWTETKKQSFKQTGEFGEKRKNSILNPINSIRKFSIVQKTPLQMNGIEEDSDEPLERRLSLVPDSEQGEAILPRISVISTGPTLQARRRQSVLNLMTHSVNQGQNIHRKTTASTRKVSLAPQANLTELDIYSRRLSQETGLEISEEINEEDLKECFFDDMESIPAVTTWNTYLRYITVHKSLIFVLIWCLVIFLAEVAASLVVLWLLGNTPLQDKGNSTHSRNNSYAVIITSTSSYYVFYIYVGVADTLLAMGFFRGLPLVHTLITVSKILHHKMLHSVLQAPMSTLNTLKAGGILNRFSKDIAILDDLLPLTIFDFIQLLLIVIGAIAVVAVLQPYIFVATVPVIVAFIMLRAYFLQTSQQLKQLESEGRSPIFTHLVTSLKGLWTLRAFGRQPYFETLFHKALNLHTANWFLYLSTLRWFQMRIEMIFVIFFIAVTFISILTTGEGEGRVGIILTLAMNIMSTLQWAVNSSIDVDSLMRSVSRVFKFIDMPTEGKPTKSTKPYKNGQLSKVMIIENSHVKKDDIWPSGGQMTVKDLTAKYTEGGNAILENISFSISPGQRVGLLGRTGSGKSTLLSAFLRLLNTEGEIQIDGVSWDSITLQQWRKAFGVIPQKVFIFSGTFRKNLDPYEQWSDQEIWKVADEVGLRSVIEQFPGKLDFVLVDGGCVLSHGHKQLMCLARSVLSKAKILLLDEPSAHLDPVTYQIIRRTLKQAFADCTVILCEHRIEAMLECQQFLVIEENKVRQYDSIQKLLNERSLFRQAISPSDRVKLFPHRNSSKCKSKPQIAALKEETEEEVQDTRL

| SMILES | Emax [1] [%] | EC50 [2] [µM] | Maximum % activity (with co-corrector) [3] | EC50 [4] [µM] |
| --- | --- | --- | --- | --- |
| COc1ccncc1CN[C@@H]1[C@@H](C(C)(C)C)[C@H](C(=O)O)N(C(=O)C2CCCCC2)[C@@H]1c1ccccc1 (racemic) [III-16] | < 100 | > 10 | + (<150) | > 10 |
| COc1cc(C(F)(F)F)cc(N(C)[C@@H]2[C@@H](C(C)(C)C)[C@H](C(=O)O)N(C(=O)C3CCCCC3)[C@@H]2c2ccccc2)n1 (racemic) [III-17] | < 100 | > 10 | ++ (≥150 and <350) | 1 to 10 |
| COc1cccc(CN[C@@H]2[C@@H](C(C)(C)C)[C@H](C(=O)O)N(C(=O)C3CCCCC3)[C@@H]2c2ccccc2)n1 (racemic) [III-19] | < 100 | 1 to 10 | ++ (≥150 and <350) | 1 to 10 |
| COc1cc(OC)c(CN[C@@H]2[C@@H](C(C)(C)C)[C@H](C(=O)O)N(C(=O)C3CCCCC3)[C@@H]2c2ccccc2)cc1Cl (racemic) [III-20] | < 100 | 1 to 10 | ++ (≥150 and <350) | 1 to 10 |
| COc1cccnc1CN[C@@H]1[C@@H](C(C)(C)C)[C@H](C(=O)O)N(C(=O)C2CCCCC2)[C@@H]1c1ccccc1 (racemic) [III-21] | < 100 | > 10 | ++ (≥150 and <350) | 1 to 10 |
| COc1ccnc(CN[C@@H]2[C@@H](C(C)(C)C)[C@H](C(=O)O)N(C(=O)C3CCCCC3)[C@@H]2c2ccccc2)n1 (racemic) [III-22] | < 100 | > 10 | + (<150) | > 10 |
| CC(C)(C)[C@@H]1[C@@H](Nc2cc(C(F)(F)F)cc(=O)[nH]2)[C@@H](c2ccccc2)N(C(=O)C2CCCCC2)[C@H]1C(=O)O (racemic) [III-23] | < 100 | > 10 | + (<150) | > 10 |
| COCCn1ccnc1CN[C@@H]1[C@@H](C(C)(C)C)[C@H](C(=O)O)N(C(=O)C2CCCCC2)[C@@H]1c1ccccc1 (racemic) [III-24] | < 100 | > 10 | + (<150) | > 10 |
| COc1ccc(CN[C@@H]2[C@@H](C(C)(C)C)[C@H](C(=O)O)N(C(=O)C3CCCCC3)[C@@H]2c2ccccc2)cn1 (racemic) [III-25] | < 100 | > 10 | ++ (≥150 and <350) | 1 to 10 |
| COc1ccc(Cl)cc1CN[C@@H]1[C@@H](C(C)(C)C)[C@H](C(=O)O)N(C(=O)C2CCCCC2)[C@@H]1c1ccccc1 (racemic) [III-27] | > 200 | 1 to 10 | +++ (≥350) | 1 to 10 |
| CC(C)(C)[C@@H]1[C@@H](NCc2cccnc2N2CCOCC2)[C@@H](c2ccccc2)N(C(=O)C2CCCCC2)[C@H]1C(=O)O (racemic) [III-28] | < 100 | 1 to 10 | ++ (≥150 and <350) | 1 to 10 |
| COc1ncc(CN[C@@H]2[C@@H](C(C)(C)C)[C@H](C(=O)O)N(C(=O)C3CCCCC3)[C@@H]2c2ccccc2)c(OC)n1 (racemic) [III-29] | < 100 | 1 to 10 | ++ (≥150 and <350) | 1 to 10 |
| COc1cc(Cl)ccc1CN[C@@H]1[C@@H](C(C)(C)C)[C@H](C(=O)O)N(C(=O)C2CCCCC2)[C@@H]1c1ccccc1 (racemic) [III-30] | > 200 | 1 to 10 | +++ (≥350) | 1 to 10 |
| CC(C)(C)[C@@H]1[C@@H](Nc2cc(C(F)(F)F)cc[n+]2[O-])[C@@H](c2ccccc2)N(C(=O)C2CCCCC2)[C@H]1C(=O)O (racemic) [III-31] | < 100 | > 10 | ++ (≥150 and <350) | 1 to 10 |
| Cc1cc(C(F)(F)F)cc(N[C@@H]2[C@@H](C(C)(C)C)[C@H](C(=O)O)N(C(=O)C3CCCCC3)[C@@H]2c2ccccc2)[n+]1[O-] (racemic) [III-32] | < 100 | 1 to 10 | ++ (≥150 and <350) | 1 to 10 |
| O=C(O)[C@H]1[C@H](C2CC2)[C@@H](Nc2cc(C(F)(F)F)ccn2)[C@@H](c2ccccc2)N1C(=O)C1CCCCC1 (racemic) [III-33] | < 100 | 1 to 10 | ++ (≥150 and <350) | 1 to 10 |
| CC(C)N(C(=O)N1[C@H](c2ccccc2)[C@H](NCc2ccccc2OC(F)F)[C@@H](C)[C@@H]1C(=O)O)C(C)C (racemic) [III-34] | < 100 | 1 to 10 | ++ (≥150 and <350) | 1 to 10 |
| COc1cc(C(F)(F)F)ccc1CN[C@@H]1[C@@H](C(C)(C)C)[C@H](C(=O)O)N(C(=O)C2CCCCC2)[C@@H]1c1ccccc1 (racemic) [III-35] | 100 to 200 | 1 to 10 | +++ (≥350) | < 1 |
| CN(C)c1ncc(C(F)(F)F)cc1CN[C@@H]1[C@@H](C(C)(C)C)[C@H](C(=O)O)N(C(=O)C2CCCCC2)[C@@H]1c1ccccc1 (racemic) [III-36] | < 100 | > 10 | ++ (≥150 and <350) | 1 to 10 |
| COc1ccc(Cl)cc1CN[C@@H]1[C@@H](C)[C@H](C(=O)O)N(C(=O)N(C(C)C)C(C)C)[C@@H]1c1ccccc1 (racemic) [III-37] | < 100 | > 10 | ++ (≥150 and <350) | 1 to 10 |
| CC(C)OC(=O)N1[C@H](c2ccccc2)[C@H](Nc2cc(C(F)(F)F)ccn2)[C@@H](C(C)(C)C)[C@@H]1C(=O)O (racemic) [III-38] | < 100 | 1 to 10 | +++ (≥350) | 1 to 10 |
| COc1cc(Cl)ccc1CN[C@@H]1[C@@H](C)[C@H](C(=O)O)N(C(=O)N(C(C)C)C(C)C)[C@@H]1c1ccccc1 (racemic) [III-39] | < 100 | > 10 | ++ (≥150 and <350) | 1 to 10 |
| COc1ccc(C(F)(F)F)cc1CN[C@@H]1[C@@H](C(C)(C)C)[C@H](C(=O)O)N(C(=O)C2CCCCC2)[C@@H]1c1cccnc1N(C)C (racemic) [III-41] | 100 to 200 | 1 to 10 | +++ (≥350) | 1 to 10 |
| CC(C)(C)[C@@H]1[C@@H](Nc2cc(C#N)ccn2)[C@@H](c2ccccc2)N(C(=O)C2CCCCC2)[C@H]1C(=O)O (racemic) [III-42] | < 100 | 1 to 10 | ++ (≥150 and <350) | 1 to 10 |
| CC(C)OC(=O)N1[C@H](c2ccccc2)[C@H](Nc2cccc(C(F)(F)F)n2)[C@@H](C(C)(C)C)[C@@H]1C(=O)O (racemic) [III-44] | < 100 | 1 to 10 | ++ (≥150 and <350) | 1 to 10 |
| COc1ccccc1[C@@H]1[C@H](NCc2cccc3c2OC(F)(F)O3)[C@@H](C(C)(C)C)[C@H](C(=O)O)N1C(=O)C1CCCCC1 (racemic) [III-45] | < 100 | 1 to 10 | ++ (≥150 and <350) | 1 to 10 |
| Cc1cc(C(F)(F)F)cc(N[C@@H]2[C@@H](C(C)(C)C)[C@H](C(=O)O)N(C(=O)C3CCCCC3)[C@@H]2c2cccnc2N(C)C)n1 (racemic) [III-46] | < 100 | 1 to 10 | ++ (≥150 and <350) | 1 to 10 |
